Source: ChEMBL document CHEMBL5244240, “MmpL3 inhibitors as antituberculosis drugs” (Eur J Med Chem, 2020)
Converted amounts (≈) assume the structure as drawn.

Columns and labels:
[1] = tested on: Mycobacterium tuberculosis; experiment: Antitubercular activity against low oxygen adapted Mycobacterium tuberculosis H37Rv; type: functional
[2] = tested on: Mycobacterium tuberculosis; experiment: Antitubercular activity against multidrug resistant Mycobacterium tuberculosis; type: functional

Row | Structure (SMILES) | MIC [1] | MIC [2]
1 | COc1ccc(-c2cc(CN3CCSCC3)c(C)n2-c2ccc(F)cc2)cc1 | 10.1 µM (≈ 4 µg/mL) | –
2 | CC1(C)CCC(NC(=O)c2cc3c(F)cc(F)cc3[nH]2)CC1 | – | < 0.04 µM
3 | CC1(C)CCC(NC(=O)c2cc3c(Cl)cc(Cl)cc3[nH]2)CC1 | – | < 0.04 µM
4 | Cc1c(CN2CCOCC2)cc(-c2ccc(C(C)C)cc2)n1-c1ccc(F)cc1 | 28.7 µM (≈ 11.3 µg/mL) | –
